Measured values taken from patent publication US20090099167A1, “Organic compounds” (Novartis Institutes for Biomedical Research, priority 2004, published 2009).
Blank lines part the entries; values can stand above or below the molecule they belong to.

Tests used:
[1] = molecular target: T1, human VEGF-R2 receptor (KDR) (Homo sapiens, UniProt P35968); experiment: VEGF-induced KDR autophosphorylation in transfected CHO cells, sandwich ELISA; assay type: cell-based; conditions: Table 4; read-out: KDR, activity (IC50 for kinase inhibition)
T1 construct: expressed in transfected cells; host or cells: CHO cells

[2] = molecular target: T2, human RET (Homo sapiens, UniProt P07949); experiment: RET kinase inhibition, GST-wtRET or GST-RET-Men2B, 33P incorporation into poly(Glu,Tyr); assay type: biochemical; conditions: Table 4
T2 construct: fused on or other part: N-terminal GST tag (pFB-GSTX3 vector)
Description: The inhibition of RET is measured as follows: The baculovirus donor vector pFB-GSTX3 is used to generate a recombinant baculovirus that expresses the amino acid region 658-1072 (Swiss prot No. Q9BTB0) of the intra-cytoplasmic kinase domain of human RET-Men2A which corresponds to the wild-type kinase domain of RET (wtRET) and RET-Men2B, which differs from the wtRET by the activating mutation in the activation loop M918T. The coding sequences for the cytoplasmic domain of wtRET and RET-Men2B are amplified by PCR from the plasmids pBABEpuro RET-Men2A and pBABEpuro RET-Men2B. The amplified DNA fragments and the pFB-GSTX3 vector are made compatible for ligation by digestion with SalI and KpnI. Ligation of these DNA fragments results in the baculovirus donor plasmid pFB-GX3-RET-Men2A and pFB-GX3-RET-Men2B, respectively. Production of virus: Transfer vectors containing the kinase domains are transfected into the DH10Bac cell line (GIBCO) and plated on selective agar plates. Colonies without insertion of the fusion sequence into the viral genome (carried by the bacteria) are blue. Single, white colonies are picked and viral DNA (bacmid) are isolated from the bacteria by standard plasmid purification procedures. Sf9 cells or Sf21 (American Type Culture Collection) cells are then transfected in 25 cm^2 flasks with the viral DNA using Cellfectin reagent. Determination of small scale protein expression in Sf9 cells: Virus-containing media is collected from the transfected cell culture and used for infection to increase its titer. Virus-containing media obtained after two rounds of infection is used for large-scale protein expression. For large-scale protein expression 100 cm^2 round tissue culture plates are seeded with 5×10^7 cells/plate and infected with 1 mL of virus-containing media (approximately 5 MOIs). After 3 days, the cells are scraped off the plate and centrifuged at 500 rpm for 5 minutes. Cell pellets from 10-20, 100 cm^2 plates, are re-suspended in 50 mL of ice-cold lysis buffer (25 mM tris-HCl, pH 7.5, 2 mM EDTA, 1% NP-40, 1 mM DTT, 1 mM P MSF). The cells are stirred on ice for 15 minutes and then centrifuged at 5,000 rpms for 20 minutes. Purification of GST-tagged proteins: The centrifuged cell lysate is loaded onto a 2 mL glutathione-sepharose column (Pharmacia) and is washed 3× with 10 mL of 25 mM tris-HCl, pH 7.5, 2 mM EDTA, 1 mM DTT, 200 mM NaCl. The GST-tagged proteins are then eluted by 10 applications (1 mL each) of 25 mM tris-HCl, pH 7.5, 10 mM reduced-glutathione, 100 mM NaCl, 1 mM DTT, 10% glycerol and stored at −70° C. Measure of enzyme activity: Tyrosine protein kinase assays with either purified GST-wtRET or GST-RET-Men2B protein are carried out in a final volume of 30 μL containing 15 ng of either GST-wtRET or GST-RET-Men2B protein, 20 mM tris-HCl, pH 7.5, 1 mM MnCl2, 10 mM MgCl2, 1 mM DTT, 3 μg/mL poly(Glu,Tyr) 4:1, 1% DMSO, 2.0 μM ATP (γ-[^33P]-ATP 0.1 μCi). The activity is assayed in the presence or absence of inhibitors, by measuring the incorporation of ^33P from [γ^33P] ATP into poly(Glu,Tyr) 4:1. The assay is carried out in 96-well plates at ambient temperature for 15 minutes under conditions described below and terminated by the addition of 20 μL of 125 mM EDTA. Subsequently, 40 μL of the reaction mixture are transferred onto Immobilon-PVDF membrane (Millipore) previously soaked for 5 minutes with methanol, rinsed with water, then soaked for 5 minutes with 0.5% H3PO4 and mounted on vacuum manifold with disconnected vacuum source. After spotting all samples, vacuum is connected and each well-rinsed with 200 μL 0.5% H3PO4. Membranes are removed and washed 4× on a shaker with 1.0% H3PO4, once with ethanol. Membranes are counted after drying at ambient temperature, mounting in Packard TopCount 96-well frame, and addition of 10 μL/well of Microscint™ (Packard). IC50 values are calculated by linear regression analysis of the percentage inhibition of each compound in duplicate, at 4 concentrations (usually 0.01, 0.1, 1 and 10 μM). […]

T2 sequence (P07949 1-1072 isoform P07949-2): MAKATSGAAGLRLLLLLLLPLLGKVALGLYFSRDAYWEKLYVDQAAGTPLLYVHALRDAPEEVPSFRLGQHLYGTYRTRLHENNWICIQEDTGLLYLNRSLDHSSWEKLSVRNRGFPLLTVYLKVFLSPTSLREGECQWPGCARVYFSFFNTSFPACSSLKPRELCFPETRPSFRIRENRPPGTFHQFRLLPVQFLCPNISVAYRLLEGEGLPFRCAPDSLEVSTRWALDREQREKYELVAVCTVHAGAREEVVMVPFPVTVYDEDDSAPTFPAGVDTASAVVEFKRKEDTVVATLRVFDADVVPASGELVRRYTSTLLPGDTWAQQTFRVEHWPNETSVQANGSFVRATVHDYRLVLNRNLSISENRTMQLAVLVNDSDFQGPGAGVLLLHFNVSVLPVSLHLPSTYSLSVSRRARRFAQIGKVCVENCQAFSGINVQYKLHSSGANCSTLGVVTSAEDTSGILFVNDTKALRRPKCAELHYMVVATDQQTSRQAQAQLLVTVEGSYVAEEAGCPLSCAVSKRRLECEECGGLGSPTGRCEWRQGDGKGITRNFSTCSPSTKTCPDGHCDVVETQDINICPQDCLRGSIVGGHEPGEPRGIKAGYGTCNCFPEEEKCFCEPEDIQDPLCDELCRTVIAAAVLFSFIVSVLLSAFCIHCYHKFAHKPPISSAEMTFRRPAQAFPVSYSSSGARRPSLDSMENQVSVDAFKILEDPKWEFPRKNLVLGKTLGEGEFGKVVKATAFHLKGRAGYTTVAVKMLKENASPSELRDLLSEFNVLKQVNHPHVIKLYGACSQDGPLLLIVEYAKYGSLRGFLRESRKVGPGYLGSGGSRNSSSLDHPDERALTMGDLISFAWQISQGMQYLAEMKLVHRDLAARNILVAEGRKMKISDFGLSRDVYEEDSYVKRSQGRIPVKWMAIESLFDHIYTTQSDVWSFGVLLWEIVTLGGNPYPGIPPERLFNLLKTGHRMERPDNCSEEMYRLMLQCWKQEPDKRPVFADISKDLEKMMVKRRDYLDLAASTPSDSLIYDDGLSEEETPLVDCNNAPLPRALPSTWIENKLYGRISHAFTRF
T1 sequence (P35968 20-1356): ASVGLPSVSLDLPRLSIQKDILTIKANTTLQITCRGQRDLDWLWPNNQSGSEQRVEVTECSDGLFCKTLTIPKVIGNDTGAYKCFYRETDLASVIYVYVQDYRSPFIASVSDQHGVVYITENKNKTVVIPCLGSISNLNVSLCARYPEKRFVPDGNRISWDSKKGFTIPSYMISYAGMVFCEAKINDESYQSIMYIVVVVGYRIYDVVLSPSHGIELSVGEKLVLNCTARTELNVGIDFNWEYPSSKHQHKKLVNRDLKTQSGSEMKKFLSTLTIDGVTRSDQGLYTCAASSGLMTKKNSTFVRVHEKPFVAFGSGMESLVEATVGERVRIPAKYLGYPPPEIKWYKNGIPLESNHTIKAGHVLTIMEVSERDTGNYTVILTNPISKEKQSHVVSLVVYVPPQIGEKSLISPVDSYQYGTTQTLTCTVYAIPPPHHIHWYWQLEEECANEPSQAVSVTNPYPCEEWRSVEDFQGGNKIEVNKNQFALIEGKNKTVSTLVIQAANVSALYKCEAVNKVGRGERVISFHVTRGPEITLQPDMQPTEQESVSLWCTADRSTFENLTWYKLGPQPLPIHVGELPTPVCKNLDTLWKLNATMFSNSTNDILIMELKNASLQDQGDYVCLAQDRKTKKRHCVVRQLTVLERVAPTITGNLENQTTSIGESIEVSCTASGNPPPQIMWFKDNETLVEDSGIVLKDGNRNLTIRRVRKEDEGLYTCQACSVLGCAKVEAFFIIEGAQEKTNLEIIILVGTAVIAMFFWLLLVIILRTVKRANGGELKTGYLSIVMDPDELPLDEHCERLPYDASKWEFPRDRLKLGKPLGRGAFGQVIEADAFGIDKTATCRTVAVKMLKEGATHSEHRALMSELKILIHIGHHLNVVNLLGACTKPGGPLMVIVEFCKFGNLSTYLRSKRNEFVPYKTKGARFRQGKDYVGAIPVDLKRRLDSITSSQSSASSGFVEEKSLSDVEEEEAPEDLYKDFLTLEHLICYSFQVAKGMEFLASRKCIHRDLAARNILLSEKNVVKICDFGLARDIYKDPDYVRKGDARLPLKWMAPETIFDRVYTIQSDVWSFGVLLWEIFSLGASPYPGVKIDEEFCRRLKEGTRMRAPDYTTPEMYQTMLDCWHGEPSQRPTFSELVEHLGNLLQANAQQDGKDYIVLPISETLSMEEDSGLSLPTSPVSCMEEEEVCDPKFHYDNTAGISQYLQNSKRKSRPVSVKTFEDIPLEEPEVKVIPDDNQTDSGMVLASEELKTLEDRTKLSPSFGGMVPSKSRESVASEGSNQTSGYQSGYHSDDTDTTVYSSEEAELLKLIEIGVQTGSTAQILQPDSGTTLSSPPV

- IC50 [1]: < 10 µM
- IC50 [2]: < 10 µM
Structure (SMILES): CN1CCN(c2cccc(-c3cnn4c(N)c(-c5cccc(O)c5)cnc34)c2)CC1 [Example 29, 3-{7-Amino-3-[3-(4-methyl-piperazin-1-yl)-phenyl]-pyrazolo[1,5-a]pyrimidin-6-yl}-phenol]

- IC50 [2]: < 10 µM
Structure (SMILES): CN1CCN(c2cccc(-c3cnn4c(N)c(-c5ccc(O)cc5)cnc34)c2)CC1 [Example 39, 4-{7-Amino-3-[3-(4-methyl-piperazin-1-yl)-phenyl]-pyrazolo[1,5-a]pyrimidin-6-yl}-phenol]

Continued, molecule first:

Structure (SMILES): CN1CCN(c2ccc(-c3cnn4c(N)c(-c5cccc(O)c5)cnc34)cc2)CC1 [Example 1, 3-{7-Amino-3-[4-(4-methyl-piperazin-1-yl)-phenyl]-pyrazolo[1,5-a]pyrimidin-6-yl}-phenol]
- IC50 [1]: < 10 µM
- IC50 [2]: < 10 µM

Structure (SMILES): Nc1c(-c2cccc(O)c2)cnc2c(-c3cccnc3)cnn12 [Example 46, 3-[7-Amino-3-pyridin-3-yl-pyrazolo[1,5-a]pyrimidin-6-yl]-phenol]
- IC50 [1]: < 10 µM

Structure (SMILES): COc1ccccc1-c1cnn2c(N)c(-c3cccc(O)c3)cnc12 [Example 48, 3-[7-Amino-3-(2-methoxy-phenyl)-pyrazolo[1,5-a]pyrimidin-6-yl]-phenol]
- IC50 [2]: < 10 µM
